Like-named read-outs stand apart in the source and are kept apart here.
Assays:
CYP2D6 = molecular target: T1, CYP2D6 (Homo sapiens, UniProt P10635); assay: Inhibition of human liver microsomal cytochrome P450 CYP2D6; assay type: in vitro ADME; settings: human liver microsomes, probe substrate, NADPH
T1 construct: fused human liver microsomes were selected as a CYP450 enzyme source; from tissue; host or cells: pooled ("fused") human liver microsomes
From the text: (§1) Objective: To study the inhibitory effect of compounds on human liver microsomal cytochrome P450. Experimental procedures: In the study on inhibition of the compounds on the human liver microsomal cytochrome P450 (CYP1A2, CYP2C9, CYP2C19, CYP2D6 and CYP3A4), fused human liver microsomes were selected as a CYP450 enzyme source. […]

[1] = Pharmacokinetics in SD rats, intravenous injection for 5 consecutive days; assay type: in vivo; settings: male, Sprague-Dawley (SD), rat, plasma, 20 mg/kg, 20 mg/kg intravenous daily
Description: Objective: To study 5-day Toxicology of Compounds in SD Rats
Experimental materials: SD rats (male, 200-300 g, 7-9 weeks old, Shanghai Lingchang)
Pharmacokinetic profiles of the compound were tested by intravenous injection in rodents according to the standard protocol. In the study, the candidate compound was prepared as a clear solution, and was administered to SD rats at 20 mg/kg by single intravenous injection for 5 consecutive days. A vehicle for intravenous injection was a 10% hydroxypropyl β-cyclodextrin aqueous solution. Whole blood samples were collected at 0.033, 0.083, 0.25, 0.5, 1, 2, 4, 8, and 24 hours postdose on Day 1 and Day 5 of dosing, centrifuged at 3000 r for 10 min, and separated from supernatant to obtain plasma samples. 15 μL of plasma samples were mixed with 300 μL of acetonitrile precipitated proteins containing an internal standard, and 2 μL of the supernatant was injected by centrifugation. Plasma concentrations were quantified by LC-MS/MS analysis, and pharmacokinetic parameters, such as clearance, half-life, and area under the concentration-time curve, were calculated.

CYP1A2 = molecular target: T2, CYP1A2 (Homo sapiens, UniProt P05177); assay: Inhibition of human liver microsomal cytochrome P450 CYP1A2; assay type: in vitro ADME; settings: human liver microsomes, probe substrate, NADPH
T2 construct: fused human liver microsomes were selected as a CYP450 enzyme source; from tissue; host or cells: pooled ("fused") human liver microsomes
T2 sequence (P05177 1-516): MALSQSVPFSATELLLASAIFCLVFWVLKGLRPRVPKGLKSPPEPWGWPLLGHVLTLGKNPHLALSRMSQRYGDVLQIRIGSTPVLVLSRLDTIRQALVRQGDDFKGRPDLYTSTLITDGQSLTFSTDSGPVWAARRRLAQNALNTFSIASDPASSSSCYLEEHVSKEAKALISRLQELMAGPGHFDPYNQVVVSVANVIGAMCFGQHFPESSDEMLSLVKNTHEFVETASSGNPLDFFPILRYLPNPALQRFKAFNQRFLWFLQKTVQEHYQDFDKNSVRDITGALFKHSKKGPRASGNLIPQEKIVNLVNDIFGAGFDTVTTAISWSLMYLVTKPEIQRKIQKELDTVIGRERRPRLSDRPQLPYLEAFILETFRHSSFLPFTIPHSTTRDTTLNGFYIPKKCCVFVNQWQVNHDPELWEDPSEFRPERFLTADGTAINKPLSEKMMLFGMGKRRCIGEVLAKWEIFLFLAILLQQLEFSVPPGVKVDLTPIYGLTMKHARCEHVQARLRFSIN
From the text: as §1

CYP3A4 = molecular target: T3, CYP3A4 (Homo sapiens, UniProt P08684); assay: Inhibition of human liver microsomal cytochrome P450 CYP3A4; assay type: in vitro ADME; settings: human liver microsomes, two probe substrates, NADPH
T3 construct: fused human liver microsomes were selected as a CYP450 enzyme source; from tissue; host or cells: pooled ("fused") human liver microsomes
T3 sequence (P08684 whole entry, the tested form may be a part): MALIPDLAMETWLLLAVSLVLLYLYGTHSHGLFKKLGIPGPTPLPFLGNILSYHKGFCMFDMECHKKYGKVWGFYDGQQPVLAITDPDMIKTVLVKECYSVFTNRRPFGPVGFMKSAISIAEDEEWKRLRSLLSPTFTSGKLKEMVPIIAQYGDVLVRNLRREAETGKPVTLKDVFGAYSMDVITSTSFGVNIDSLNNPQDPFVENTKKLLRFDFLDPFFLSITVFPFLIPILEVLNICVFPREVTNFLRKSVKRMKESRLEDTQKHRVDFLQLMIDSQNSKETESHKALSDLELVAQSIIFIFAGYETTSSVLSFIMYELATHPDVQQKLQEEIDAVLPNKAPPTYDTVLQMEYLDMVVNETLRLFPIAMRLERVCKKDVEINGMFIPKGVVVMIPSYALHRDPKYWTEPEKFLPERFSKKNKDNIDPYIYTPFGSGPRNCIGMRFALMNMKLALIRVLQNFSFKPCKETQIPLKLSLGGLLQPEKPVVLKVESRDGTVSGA
From the text: as §1

[2] = Pharmacokinetics in Beagle dogs, single intravenous injection; assay type: in vivo; settings: male, dog, plasma, 1 mg/kg single intravenous injection
Description: Objective: To Study Pharmacokinetics of the Compound in Beagle Dogs
Experimental Material: Beagle Dogs (male, 8-11 kg, greater than or equal to 6 months, Marshall)
Pharmacokinetic profiles of the compound were tested by intravenous administration in […] according to the standard protocol. In the study, the candidate compound was prepared as a clear solution, and was administered to Beagle dogs at 1 mg/kg by single intravenous injection. A vehicle for intravenous injection was a 10% hydroxypropyl ß-cyclodextrin aqueous solution. Whole blood samples were collected at 0.033, 0.083, 0.25, 0.5, 1, 2, 4, 8, 12, and 24 hours, respectively, centrifuged at 3000 r for 10 min, and separated from supernatant to obtain plasma samples. 20 μL of plasma samples were mixed with 400 μL of acetonitrile precipitated proteins containing an internal standard, and 2 μL of the supernatant was injected by centrifugation. Plasma concentrations were quantified by LC-MS/MS analysis, and pharmacokinetic parameters, such as clearance, half-life, and area under the concentration-time curve, etc. were calculated.

[3] = Corneal and plasma drug concentration after eye drops in rats; assay type: in vivo
Description: Objective: To Study the Ratio of Corneal to Plasma Drug Concentration After Eye Drops in Rats
Experimental Materials: Male SD Rats, 200-300 g, 7-9 weeks old, Shanghai Lingchang
Experimental procedures: The candidate compound was prepared as a clear solution, and administered to SD rats by eye drops. The vehicle for eye drops was 10% hydroxypropyl β-cyclodextrin aqueous solution, and the drug concentration in the eye drops was 5 mg/mL. Corneal and whole blood samples were collected at 1 and 4 hours, respectively. The corneal samples was homogenized in 15 mM phosphate buffer (PBS): MeoH (2:1, v: v) buffer, the whole blood samples were centrifuged at 3000 r for 10 min, and the supernatant plasma samples were separated. 20 μL of the plasma samples and homogenate samples were mixed with 400 μL of acetonitrile precipitated proteins containing an internal standard, respectively, and 2 μL of the supernatant was injected by centrifugation. The plasma concentrations were quantified by LC-MS/MS analysis; the drug concentrations in the cornea and plasma were measured respectively according to different time points, and the ratio of corneal/plasma concentrations was calculated.

T1 sequence (P10635 whole entry, the tested form may be a part): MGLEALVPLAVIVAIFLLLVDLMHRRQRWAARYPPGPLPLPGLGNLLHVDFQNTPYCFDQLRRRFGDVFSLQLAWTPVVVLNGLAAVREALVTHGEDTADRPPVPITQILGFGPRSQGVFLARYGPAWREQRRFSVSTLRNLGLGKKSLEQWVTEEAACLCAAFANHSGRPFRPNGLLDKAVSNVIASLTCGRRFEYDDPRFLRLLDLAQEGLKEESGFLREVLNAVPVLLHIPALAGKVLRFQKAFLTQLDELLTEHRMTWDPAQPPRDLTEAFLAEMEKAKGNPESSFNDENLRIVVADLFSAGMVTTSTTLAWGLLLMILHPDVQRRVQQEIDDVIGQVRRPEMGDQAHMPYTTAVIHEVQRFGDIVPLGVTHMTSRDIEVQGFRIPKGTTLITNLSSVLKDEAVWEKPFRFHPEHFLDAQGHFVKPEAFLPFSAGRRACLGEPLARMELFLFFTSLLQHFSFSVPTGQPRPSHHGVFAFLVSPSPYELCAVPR

IC50 (CYP2D6): > 50 µM
clearance ([1]; Day 1): 7.11 mL/min/kg
AUC ([1]; Day 1, read-out: Area under the concentration-time curve AUC): 156 µM·h
half-life ([1]; Day 1, read-out: Half-time T1/2 (converted)): 2.45 h
clearance ([1]; Day 5): 9.04 mL/min/kg
AUC ([1]; Day 5, read-out: Area under the concentration-time curve AUC): 123 µM·h
half-life ([1]; Day 5, read-out: Half-time T1/2 (converted)): 2.72 h
IC50 (CYP1A2): > 50 µM
IC50 (CYP3A4): > 50 µM
clearance [2]: 15 mL/min/kg
AUC ([2]; read-out: Area under the concentration-time curve AUC): 3.71 µM·h
half-life ([2]; read-out: Half-time T1/2 (converted)): 2.17 h
entry into the cornea by eye drops ([3]; SD rats, eye drops, result in words): could enter the cornea by eye drops
concentration at 1 h ([3]; male, Sprague-Dawley (SD), rat, cornea, topical, eye drops 5 mg/mL, 1 h, read-out: Corneal Concentration): 1800 nM
concentration at 4 h ([3]; male, Sprague-Dawley (SD), rat, cornea, topical, eye drops 5 mg/mL, 4 h, read-out: Corneal Concentration): 581 nM
Kp ([3]; male, Sprague-Dawley (SD), rat, cornea/plasma, topical, 5 mg/mL, eye drops, statement in the conclusion, no time point, read-out: ratio of cornea/plasma concentrations): > 10
Kp at 1 h ([3]; male, Sprague-Dawley (SD), rat, cornea/plasma, topical, eye drops 5 mg/mL, 1 h, read-out: Corneal Concentration/Plasma Concentration C/P ratio): 14.3
Kp at 4 h ([3]; male, Sprague-Dawley (SD), rat, cornea/plasma, topical, eye drops 5 mg/mL, 4 h, read-out: Corneal Concentration/Plasma Concentration C/P ratio): 16.6
concentration at 1 h ([3]; male, Sprague-Dawley (SD), rat, plasma, topical, eye drops 5 mg/mL, 1 h, read-out: Plasma Concentration): 162 nM
concentration at 4 h ([3]; male, Sprague-Dawley (SD), rat, plasma, topical, eye drops 5 mg/mL, 4 h, read-out: Plasma Concentration): 43.8 nM
Structure (SMILES): CC(C)(O)c1ccc(-c2cnc(C(C)(C)O)c(N)c2)cc1N [Compound 3]

From patent US12479823B2, “Compound for use in retinal diseases” (ZHUHAI UNITED LABORATORIES CO., LTD., priority 2018, dated 2025)
